Results from PubChem BioAssay AID2060884 (Molecular Pharmacology Branch, DTP, NCI, 2025).
Where “and” joins values, the source holds several entries; their conditions need not be identical. Equal values may be shown once.

System: NCI-H929 complex spheroids, viability % test/control
Assay: Anticancer human tumor NCI-H929 cell line growth inhibition [RAS];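 also: compound exposure lasted seven days before viability was read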;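 as to viability, T/C: 100% = DMSO vehicle control viability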
Conditions: for viability, T/C: stronger effect = lower value
In short: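 Agents were tested in combination matrices in half-log decrements from a top concentration at or near clinical Cmax (10 microM if undetermined). Targets were multi-cell spheroids of tumour lines plus HUVEC and MSC stromal cells.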

With `Cc1nc(N2CCC3(CC2)COC(C)C3N)c(CO)nc1Sc1ccnc(N)c1Cl` (stereo not given) + CCn1c(-c2cccnc2C(C)OC)c2c3cc(ccc31)N1CCOC(CC(NC(=O)C(C(C)C)N(C)C(=O)C3(F)CCN(C(=O)C#CC(C)(C)N(C)C)CC3)C(=O)N3CCCC(N3)C(=O)OCC(C)(C)C2)C1 the IC50 (curve of first compound, second compound 0.000949 µM) was > 10000 nM, the IC50 (curve of first compound, second compound 0.003 µM) was > 10000 nM and the IC50 (curve of first compound, second compound 0.00949 µM) was > 10000 nM. The IC50 (curve of first compound, second compound 0.03 µM) was > 10000 nM, the IC50 (curve of first compound, second compound 0.0949 µM) was > 10000 nM and the IC50 (curve of first compound, second compound 0.3 µM) was > 10000 nM. It also gave a viability, T/C (second compound 0.000949 µM, first compound 0.0316 µM) of 108%, a viability, T/C (second compound 0.000949 µM, first compound 0.1 µM) of 99.1% and a viability, T/C (second compound 0.000949 µM, first compound 0.316 µM) of 102%. The viability, T/C (second compound 0.000949 µM, first compound 1 µM) was 102%, the viability, T/C (second compound 0.000949 µM, first compound 3.16 µM) was 102% and the viability, T/C (second compound 0.000949 µM, first compound 10 µM) was 97.8%. The viability, T/C (second compound 0.003 µM, first compound 0.0316 µM) was 103%, the viability, T/C (second compound 0.003 µM, first compound 0.1 µM) was 105% and the viability, T/C (second compound 0.003 µM, first compound 0.316 µM) was 102%. It also gave a viability, T/C (second compound 0.003 µM, first compound 1 µM) of 101%, a viability, T/C (second compound 0.003 µM, first compound 3.16 µM) of 103% and a viability, T/C (second compound 0.003 µM, first compound 10 µM) of 99.5%. It also gave a viability, T/C (second compound 0.00949 µM, first compound 0.0316 µM) of 102%, a viability, T/C (second compound 0.00949 µM, first compound 0.1 µM) of 101% and a viability, T/C (second compound 0.00949 µM, first compound 0.316 µM) of 108%. For the same compound, the viability, T/C (second compound 0.00949 µM, first compound 1 µM) was 100%, the viability, T/C (second compound 0.00949 µM, first compound 3.16 µM) was 104% and the viability, T/C (second compound 0.00949 µM, first compound 10 µM) was 102%. The viability, T/C (second compound 0.03 µM, first compound 0.0316 µM) was 99.4%, the viability, T/C (second compound 0.03 µM, first compound 0.1 µM) was 103% and the viability, T/C (second compound 0.03 µM, first compound 0.316 µM) was 103%. For the same compound, the viability, T/C (second compound 0.03 µM, first compound 1 µM) was 99.8%, the viability, T/C (second compound 0.03 µM, first compound 3.16 µM) was 106% and the viability, T/C (second compound 0.03 µM, first compound 10 µM) was 104%. It also gave a viability, T/C (second compound 0.0949 µM, first compound 0.0316 µM) of 104%, a viability, T/C (second compound 0.0949 µM, first compound 0.1 µM) of 97.1% and a viability, T/C (second compound 0.0949 µM, first compound 0.316 µM) of 98.2%. The viability, T/C (second compound 0.0949 µM, first compound 1 µM) was 101%, the viability, T/C (second compound 0.0949 µM, first compound 3.16 µM) was 98.2% and the viability, T/C (second compound 0.0949 µM, first compound 10 µM) was 95.7%. It also gave a viability, T/C (second compound 0.3 µM, first compound 0.0316 µM) of 102%, a viability, T/C (second compound 0.3 µM, first compound 0.1 µM) of 103% and a viability, T/C (second compound 0.3 µM, first compound 0.316 µM) of 101%. For the same compound, the viability, T/C (second compound 0.3 µM, first compound 1 µM) was 99.7%, the viability, T/C (second compound 0.3 µM, first compound 3.16 µM) was 98.2% and the viability, T/C (second compound 0.3 µM, first compound 10 µM) was 95.5%.

For `CC(C)n1nc(-c2ccc3oc(N)nc3c2)c2c(N)ncnc21` + C=CC(=O)N1CCN(c2nc(OCC3CCCN3C)nc3c(F)c(-c4nc(N)cc(C)c4C(F)(F)F)c(Cl)cc23)C(C)C1, the IC50 (curve of first compound, second compound 0.00316 µM) was 63.2 nM, the IC50 (curve of first compound, second compound 0.01 µM) was 64.7 nM and the IC50 (curve of first compound, second compound 0.0316 µM) was 65 nM. For the same compound, the IC50 (curve of first compound, second compound 0.1 µM) was 64.2 nM, the IC50 (curve of first compound, second compound 0.316 µM) was 65.5 nM and the IC50 (curve of first compound, second compound 1 µM) was 64.4 nM. For the same compound, the viability, T/C (second compound 0.00316 µM, first compound 0.000316 µM) was 102%, the viability, T/C (second compound 0.00316 µM, first compound 0.001 µM) was 104% and the viability, T/C (second compound 0.00316 µM, first compound 0.00316 µM) was 112%. The viability, T/C (second compound 0.00316 µM, first compound 0.01 µM) was 111%, the viability, T/C (second compound 0.00316 µM, first compound 0.0316 µM) was 118% and the viability, T/C (second compound 0.00316 µM, first compound 0.1 µM) was 10.6%. For the same compound, the viability, T/C (second compound 0.01 µM, first compound 0.000316 µM) was 102%, the viability, T/C (second compound 0.01 µM, first compound 0.001 µM) was 107% and the viability, T/C (second compound 0.01 µM, first compound 0.00316 µM) was 109%. The viability, T/C (second compound 0.01 µM, first compound 0.01 µM) was 114%, the viability, T/C (second compound 0.01 µM, first compound 0.0316 µM) was 122% and the viability, T/C (second compound 0.01 µM, first compound 0.1 µM) was 13%. The viability, T/C (second compound 0.0316 µM, first compound 0.000316 µM) was 98.6%, the viability, T/C (second compound 0.0316 µM, first compound 0.001 µM) was 106% and the viability, T/C (second compound 0.0316 µM, first compound 0.00316 µM) was 112%. It also gave a viability, T/C (second compound 0.0316 µM, first compound 0.01 µM) of 117%, a viability, T/C (second compound 0.0316 µM, first compound 0.0316 µM) of 126% and a viability, T/C (second compound 0.0316 µM, first compound 0.1 µM) of 12.9%. The viability, T/C (second compound 0.1 µM, first compound 0.000316 µM) was 95.4%, the viability, T/C (second compound 0.1 µM, first compound 0.001 µM) was 106% and the viability, T/C (second compound 0.1 µM, first compound 0.00316 µM) was 115%. It also gave a viability, T/C (second compound 0.1 µM, first compound 0.01 µM) of 117%, a viability, T/C (second compound 0.1 µM, first compound 0.0316 µM) of 122% and a viability, T/C (second compound 0.1 µM, first compound 0.1 µM) of 11.6%. It also gave a viability, T/C (second compound 0.316 µM, first compound 0.000316 µM) of 107%, a viability, T/C (second compound 0.316 µM, first compound 0.001 µM) of 111% and a viability, T/C (second compound 0.316 µM, first compound 0.00316 µM) of 109%. The viability, T/C (second compound 0.316 µM, first compound 0.01 µM) was 119%, the viability, T/C (second compound 0.316 µM, first compound 0.0316 µM) was 120% and the viability, T/C (second compound 0.316 µM, first compound 0.1 µM) was 13.3%. The viability, T/C (second compound 1 µM, first compound 0.000316 µM) was 114%, the viability, T/C (second compound 1 µM, first compound 0.001 µM) was 110% and the viability, T/C (second compound 1 µM, first compound 0.00316 µM) was 112%. It also gave a viability, T/C (second compound 1 µM, first compound 0.01 µM) of 117%, a viability, T/C (second compound 1 µM, first compound 0.0316 µM) of 120% and a viability, T/C (second compound 1 µM, first compound 0.1 µM) of 9.93%.

`CC(C)NCC(C(=O)N1CCN(c2ncnc3c2C(C)CC3O)CC1)c1ccc(Cl)cc1` (stereo not given) was tested, and the viability, T/C (compound 0.0316 µM) was 106% [middle of 4 runs], the viability, T/C (compound 0.1 µM) was 102% [middle of 4 runs] and the viability, T/C (compound 0.316 µM) was 108% (2×) and 99.3% and 103%. For the same compound, the viability, T/C (compound 1 µM) was 104% (2×) and 62.6% and 71.6%, the viability, T/C (compound 10 µM) was 12.8% [middle of 4 runs] and the IC50 (curve of compound) was 3.45 µM [middle of 4 runs].
